From ChEMBL document CHEMBL1201862, “PubChem BioAssay data set” (2004)
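Where inhibition never reached the appropriate level, the endpoint shown equals the highest concentration tested. Otherwise, values were interpolated linearly from a five-concentration, 48-hour dose response in 96-well plates. GI50 marks 50% less growth.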 Calls of active or inactive are those of the source. Rule as the data show it: active = GI50 up to about 1.1 µM and inactive = higher.

Tests used:
Assay in all cases: growth of human tumour cells (NCI), 48 h
NCI/ADR-RES = system: NCI/ADR-RES
SF-295 = system: SF-295
Hs-578T = system: Hs-578T
UO-31 = system: UO-31
CAKI-1 = system: CAKI-1
HOP-92 = system: HOP-92
DU-145 = system: DU-145
NCI-H522 = system: NCI-H522
SF-539 = system: SF-539
M14 = system: M14
NCI-H23 = system: NCI-H23
OVCAR-5 = system: OVCAR-5
SK-OV-3 = system: SK-OV-3
U-251 = system: U-251
HL-60 = system: HL-60
KM12 = system: KM12
786-0 = system: 786-0
Malme-3M = system: Malme-3M
RXF 393 = system: RXF 393
MCF7 = system: MCF7

| SMILES | GI50 (NCI/ADR-RES) | GI50 (SF-295) | GI50 (Hs-578T) | GI50 (UO-31) | GI50 (CAKI-1) | GI50 (HOP-92) | GI50 (DU-145) | GI50 (NCI-H522) | GI50 (SF-539) | GI50 (M14) | GI50 (NCI-H23) | GI50 (OVCAR-5) | GI50 (SK-OV-3) | GI50 (U-251) | GI50 (HL-60) | GI50 (KM12) | GI50 (786-0) | GI50 (Malme-3M) | GI50 (RXF 393) | GI50 (MCF7) |
| --- | --- | --- | --- | --- | --- | --- | --- | --- | --- | --- | --- | --- | --- | --- | --- | --- | --- | --- | --- | --- |
| COC(=O)C12OCC34C(CC5C(C)=CC(=O)C(O)C5(C)C3C(O)C1O)OC(=O)C(OC(=O)CC(C)C)C24 (stereo not given) | 0.00289 µM (active) | 0.00158 µM (active) | 0.000164 µM (active) | 0.00738 µM (active) | 0.005 µM (active) | 0.00324 µM (active) | 0.00083 µM (active) | 0.000352 µM (active) | 0.00064 µM (active) | < 0.0381 µM (active) | 0.000778 µM (active) | 0.00325 µM (active) | 0.0031 µM (active) | 0.00116 µM (active) | 0.000208 µM (active) | 0.00166 µM (active) | 0.0468 µM (active) | 0.00126 µM (active) | 0.00168 µM (active) | – |
| Cc1cc(C)c(/N=N/c2c(O)c(S(=O)(=O)O)cc3cc(S(=O)(=O)O)ccc23)cc1C | > 100 µM (inactive) | > 100 µM (inactive) | > 100 µM (inactive) | > 100 µM (inactive) | > 100 µM (inactive) | > 100 µM (inactive) | > 100 µM (inactive) | > 100 µM (inactive) | – | > 100 µM (inactive) | > 100 µM (inactive) | > 100 µM (inactive) | > 100 µM (inactive) | > 100 µM (inactive) | – | > 100 µM (inactive) | 48.9 µM (inactive) | > 100 µM (inactive) | > 100 µM (inactive) | – |
| CC1=Nc2ccccc2OC(C)=C1/N=N/c1ccc2[nH]c(C)nc2c1 | > 100 µM (inactive) | > 100 µM (inactive) | – | – | 47.1 µM (inactive) | 44.1 µM (inactive) | > 100 µM (inactive) | > 100 µM (inactive) | > 100 µM (inactive) | > 100 µM (inactive) | > 100 µM (inactive) | > 100 µM (inactive) | > 100 µM (inactive) | > 100 µM (inactive) | > 100 µM (inactive) | > 100 µM (inactive) | > 100 µM (inactive) | > 100 µM (inactive) | 56.1 µM (inactive) | 45.8 µM (inactive) |
| COc1ccc2c(c1OC)CN1CCc3cc4c(cc3C1C2)OCO4 (stereo not given) [TETRAHYDROBERBERINE] | > 100 µM (inactive) | > 100 µM (inactive) | > 100 µM (inactive) | > 100 µM (inactive) | > 100 µM (inactive) | > 100 µM (inactive) | > 100 µM (inactive) | > 100 µM (inactive) | > 100 µM (inactive) | > 100 µM (inactive) | > 100 µM (inactive) | > 100 µM (inactive) | > 100 µM (inactive) | > 100 µM (inactive) | > 100 µM (inactive) | > 100 µM (inactive) | > 100 µM (inactive) | > 100 µM (inactive) | – | > 100 µM (inactive) |
| NC(=O)C(=CN1C(=O)CC(=O)NC1=S)C(N)=O | > 100 µM (inactive) | > 100 µM (inactive) | – | > 100 µM (inactive) | > 100 µM (inactive) | > 100 µM (inactive) | > 100 µM (inactive) | – | > 100 µM (inactive) | > 100 µM (inactive) | > 100 µM (inactive) | > 100 µM (inactive) | > 100 µM (inactive) | > 100 µM (inactive) | > 100 µM (inactive) | > 100 µM (inactive) | > 100 µM (inactive) | – | > 100 µM (inactive) | > 100 µM (inactive) |
| O=C(Cn1c2c(c3ccccc31)CCCC2)NC1CCCCC1 | > 100 µM (inactive) | 51.3 µM (inactive) | 55 µM (inactive) | > 100 µM (inactive) | > 100 µM (inactive) | – | – | – | > 100 µM (inactive) | > 100 µM (inactive) | > 100 µM (inactive) | 46.8 µM (inactive) | 45.9 µM (inactive) | – | 0.405 µM (active) | – | 69.8 µM (inactive) | > 100 µM (inactive) | – | > 100 µM (inactive) |
| COC(=O)c1ccc(NCC2=CC(=O)C=CC2=O)cc1 | 4.38 µM (inactive) | – | 21.4 µM (inactive) | 7.08 µM (inactive) | 2.4 µM (inactive) | 3.43 µM (inactive) | 15.5 µM (inactive) | 1.7 µM (inactive) | 10.9 µM (inactive) | 4.06 µM (inactive) | 14.5 µM (inactive) | 16.7 µM (inactive) | 16.7 µM (inactive) | 13.6 µM (inactive) | 2.33 µM (inactive) | 13.6 µM (inactive) | 2.46 µM (inactive) | 4.55 µM (inactive) | – | 14.2 µM (inactive) |
| O=C(CC(=O)N(C(=O)/C=C\c1ccccc1)c1ccc(Cl)cc1)N1N=C(c2ccccc2)C(/N=N/c2cccc([N+](=O)[O-])c2)C1=O (stereo not given) | 2.18 µM (inactive) | 5.25 µM (inactive) | 18.4 µM (inactive) | > 100 µM (inactive) | 10.7 µM (inactive) | 51.4 µM (inactive) | 13.3 µM (inactive) | – | 6.07 µM (inactive) | 7.08 µM (inactive) | 8.28 µM (inactive) | 48.9 µM (inactive) | 6.32 µM (inactive) | 5.82 µM (inactive) | 2.84 µM (inactive) | 1.76 µM (inactive) | 3.35 µM (inactive) | 11.3 µM (inactive) | 10.3 µM (inactive) | 3.45 µM (inactive) |
| COC(=O)Cc1c([C@H]2[C@H](CC(=O)OC)c3ccccc3N2C(C)=O)[nH]c2ccccc12 | > 100 µM (inactive) | 72.8 µM (inactive) | > 100 µM (inactive) | 39.9 µM (inactive) | > 100 µM (inactive) | > 100 µM (inactive) | > 100 µM (inactive) | 71 µM (inactive) | > 100 µM (inactive) | > 100 µM (inactive) | 50.9 µM (inactive) | > 100 µM (inactive) | > 100 µM (inactive) | 91.2 µM (inactive) | 85.3 µM (inactive) | > 100 µM (inactive) | > 100 µM (inactive) | > 100 µM (inactive) | > 100 µM (inactive) | – |
| CC(=O)NC1(C)C(C)C2CC1C(C)C2(C)C (stereo not given) | – | > 100 µM (inactive) | > 100 µM (inactive) | > 100 µM (inactive) | > 100 µM (inactive) | > 100 µM (inactive) | > 100 µM (inactive) | > 100 µM (inactive) | > 100 µM (inactive) | > 100 µM (inactive) | > 100 µM (inactive) | > 100 µM (inactive) | > 100 µM (inactive) | > 100 µM (inactive) | > 100 µM (inactive) | > 100 µM (inactive) | > 100 µM (inactive) | > 100 µM (inactive) | > 100 µM (inactive) | > 100 µM (inactive) |
| O=C(Nc1cccc2nsnc12)c1cc2c(cc1Cl)Sc1nccn1S2(=O)=O | 17.7 µM (inactive) | 14.1 µM (inactive) | 4.25 µM (inactive) | 2.07 µM (inactive) | 9.55 µM (inactive) | 4.4 µM (inactive) | – | 8.2 µM (inactive) | 3.52 µM (inactive) | 18.9 µM (inactive) | 11.2 µM (inactive) | 32.4 µM (inactive) | 54.5 µM (inactive) | 5.66 µM (inactive) | 1.85 µM (inactive) | 2.08 µM (inactive) | 15.9 µM (inactive) | 74.5 µM (inactive) | 4.6 µM (inactive) | 1.73 µM (inactive) |
| C/C(=N\Nc1nc2ccccc2o1)c1cc(C)ncn1 | 0.0242 µM (active) | 0.0745 µM (active) | 0.231 µM (active) | 0.019 µM (active) | 0.0129 µM (active) | – | 0.171 µM (active) | < 0.01 µM (active) | 0.107 µM (active) | < 0.0206 µM (active) | 0.102 µM (active) | 0.618 µM (active) | 0.0675 µM (active) | 0.128 µM (active) | < 0.01 µM (active) | 0.0851 µM (active) | < 0.0275 µM (active) | 0.0327 µM (active) | 1.34 µM (inactive) | 0.0212 µM (active) |
| CC(C)(C)C(=O)CC(=O)C(F)(F)C(F)(F)C(F)(F)F | 18.6 µM (inactive) | 17.5 µM (inactive) | 14.6 µM (inactive) | 20 µM (inactive) | 14.7 µM (inactive) | 14.7 µM (inactive) | 36.1 µM (inactive) | – | 24.8 µM (inactive) | 16 µM (inactive) | 12.6 µM (inactive) | 35.4 µM (inactive) | 20.9 µM (inactive) | 18.4 µM (inactive) | 19.2 µM (inactive) | 16.7 µM (inactive) | 17 µM (inactive) | 22.1 µM (inactive) | 17.3 µM (inactive) | – |
| Cc1cccc2c(N)c3cccc(C(=O)NCCN(C)C)c3nc12 | 0.373 µM (active) | < 0.0298 µM (active) | 0.207 µM (active) | 0.112 µM (active) | < 0.015 µM (active) | – | 0.0188 µM (active) | < 0.0176 µM (active) | – | 0.143 µM (active) | < 0.0259 µM (active) | 0.0935 µM (active) | 0.113 µM (active) | < 0.0302 µM (active) | < 0.01 µM (active) | – | < 0.0199 µM (active) | 0.173 µM (active) | 0.184 µM (active) | < 0.0168 µM (active) |
| COc1ccc(/C=C2\CCC(CNc3ccc(Br)cc3)C2=O)cc1 (stereo not given) | > 100 µM (inactive) | > 100 µM (inactive) | – | 73.8 µM (inactive) | > 100 µM (inactive) | > 100 µM (inactive) | > 100 µM (inactive) | > 10 µM (inactive) | – | 65.8 µM (inactive) | > 100 µM (inactive) | > 100 µM (inactive) | > 100 µM (inactive) | > 100 µM (inactive) | 24.5 µM (inactive) | 29.1 µM (inactive) | > 100 µM (inactive) | > 100 µM (inactive) | > 100 µM (inactive) | 21.5 µM (inactive) |
